Measurements: patent US20030228357A1, “Dry granulated formulations of azithromycin” (Pfizer Inc., priority 2002, published 2003)
Entries after “also recorded” stand apart in the source; their conditions may differ.

Assays:
Format in all cases: physicochemical
[1] = Tablet hardness, Schleuniger hardness tablet tester
Procedure: (§1) All four formulations were compressed on the compaction simulator using either 0.344″×0.688″ oval tooling, or ½″ standard round concave (SRC) tooling. The tablets were tested for hardness (kP scale), using a Schleuniger hardness tablet tester (Dr. Schleuniger Pharmatron AG, Solothurn, Switzerland), and for friability (100 rotations/4 minutes) using a Vanderkamp Friabulator Tablet Tester (Vankel, Cary, N.C., US).

[2] = Tablet friability, Vanderkamp Friabulator (100 rotations/4 minutes); conditions: Table 4D; high drug loading; diluent DCP, dihyd.; modified capsule shape
[3] = Tablet disintegration time, Automatic Disintegration Tester; conditions: Table 2A; Long blend; Oval tooling; distilled water at 37° C.
Procedure: The disintegration time was determined in distilled water at 37° C. using an Automatic Disintegration Tester (Model ZT72, Erweka USA Inc, Milford, Conn.) for the long blend tablets. Even with extensive blending times with magnesium stearate, reasonably short disintegration times of 15 and 20 seconds were obtained.

[4] = Indices of tableting performance (Hiestand) of bulk azithromycin; conditions: forms N, M, G, A milled, F and J unmilled
Procedure: Indices of tableting performance, for several azithromycin forms, were assessed to identify any mechanical deficiencies or attributes that may affect tablet formulation for these azithromycin forms. This assessment was performed in accordance with the procedures described in “Indices of Tableting, Performance” […] and D. P. Smith, Powder Technology 38 [1984] pp. 145-159. Specifically, the Brittle Fracture Index, BFI, was calculated from the ratio of a material's regular tensile strength to its compromised tensile strength. Strain Index, SI, was determined from the dynamic indentation hardness test. Worst Case Bonding Index was determined by assessing the extent of particle bonding remaining after decompression assuming a very short compression dwell time and a plastic mechanism of particle separation during decompression. Tableting Indices were determined for bulk azithromycin lots of six different crystalline forms, specifically forms N, M, G, A, F and J. Forms N, M and G were milled with a Fitzmill (Model JT, The Fitzpatrick Co., Elmhurst, Ill.) using a 0.027'' screen and knives at high speed in an attempt to match the smaller particle size of milled Form A. Unmilled forms F and J were evaluated “as is” due to their relatively small particle sizes.

[5] = Tablet hardness, Schleuniger hardness tablet tester; remark: listed apart in the source
[6] = Density and Carr's Compressibility Index (flowability) of dry blends and dry granulations
Description: Carr's Compressibility Index was used to evaluate the flowability of the four dry granulations. Carr's Compressibility Index is a simple test to evaluate flowability by comparing both the initial and final (tapped) bulk volumes and the rate of packing down. A useful empirical guide to flow is given by Carr's compressibility index: Compressibility Index(%)=[(tapped density−initial density)/tapped density]×100 […] The procedure is described in Int. J. Pharm. Tech. & Prod. Mfr., 6(3) 10-16, 1985.

[7] = Tablet friability, Vanderkamp Friabulator (100 rotations/4 minutes)
Procedure: Friability is a standard test known to one skilled in the art. Friability is measured under standardized conditions by weighing out a certain number of tablets (generally 20 tablets or less), placing them in a rotating Plexiglas drum in which they are lifted during replicate revolutions by a radial lever, and then dropped approximately 8 inches. After replicate revolutions (typically 100 revolutions at 25 rpm), the tablets are reweighed and the percentage of formulation abraded or chipped is calculated. The friability of the tablets, of the present invention, is preferably in the range of about 0% to 3%, and values about 1%, or less, are considered acceptable for most drug and food tablet contexts. Friability which approaches 0% is particularly preferred.
as §1

[8] = Table 2B Run 4, Short blend, Oval tooling, compression force 12 kN
[9] = Table 4C, low drug loading, diluent DCP, anhyd., Oval tooling
[10] = Table 4C, low drug loading, diluent DCP, dihyd., SRC (½″) tooling
[11] = Table 2B Run 5, Short blend, Oval tooling, compression force 18.7 kN
[12] = Table 3D, high drug loading (58.2 wt % azithromycin), DCP anhydrous, modified capsule shape tablets, target weight 450 mg
[13] = Table 4C, low drug loading, diluent DCP, anhyd., SRC (½″) tooling
[14] = Table 4C, low drug loading, diluent DCP, dihyd., Oval tooling
[15] = Table 4D, high drug loading, diluent DCP, anhyd., modified capsule shape
[16] = 35.2 wt % azithromycin, dicalcium phosphate anhydrous diluent, Long blend method
[17] = 35.2 wt % azithromycin, dicalcium phosphate anhydrous diluent, Long blend method, slugged
[18] = 35.2 wt % azithromycin, dicalcium phosphate anhydrous diluent, Short blend method
[19] = 35.2 wt % azithromycin, dicalcium phosphate anhydrous diluent, Short blend method, slugged
[20] = Table 3A, low drug loading: 35.2 wt % azithromycin, 54.8 wt % dicalcium phosphate anhydrous, long blend
[21] = Table 3B, high drug loading: 58.2 wt % azithromycin, 31.8 wt % dicalcium phosphate anhydrous, long blend
[22] = Table 4A, low drug loading (35.2 wt % azithromycin), diluent DCP, anhyd.
[23] = Table 4A, low drug loading (35.2 wt % azithromycin), diluent DCP, dihyd.
[24] = Table 4B, high drug loading (58.2 wt % azithromycin), diluent DCP, anhyd.
[25] = Table 4B, high drug loading (58.2 wt % azithromycin), diluent DCP, dihyd.
[26] = Table 7, milled Form A lot, 58.2 wt % azithromycin, DCP anhydrous
[27] = Table 7, unmilled Form A lot, 58.2 wt % azithromycin, DCP anhydrous
[28] = Table 7A, 55.76 wt % azithromycin, lactose anhydrous, corn starch, roller compaction 850 psi, dihydrate
[29] = Table 7 Lot 1, milled, roller compaction, Roll Pressure Setting 850 psi
[30] = Table 7 Lot 2, milled, roller compaction, Roll Pressure Setting 300 psi
[31] = Table 7 Lot 3, unmilled, roller compaction, Roll Pressure Setting 500 psi
[32] = Table 7 Lot 4, unmilled, roller compaction, Roll Pressure Setting 300 psi

- Avg Tablet Hardness ([1]; Table 2A, 35.2 wt % azithromycin, DCP anhydrous, Long blend, Oval tooling, compression force 13.5 kN (A), 19 kN (F)): 9.0 kP
- Avg Tab Hardness [1, 8]: 6.8 kP
- Avg Tablet Hardness [1, 9]: 9.0 kP
- Avg Tablet Hardness [1, 10]: 6.2 kP
- Friability [2]: 0.49%
- Mean disintegration Time [3]: 15 s
- Brittle Fracture Index (BFI) [4]: 0.10
- Strain Index (SI) ([4]; dihydrate): 0.0044
- Tensile Strength ([4]; dihydrate): 0.99 Mpa
- Worst Case Bonding Index (BIw) × 10^2 ([4]; dihydrate): 0.9
- Avg Tablet Hardness ([5]; Table 2A, 35.2 wt % azithromycin, DCP anhydrous, Long blend, ½″ SRC tooling, 9.6 kN): 5.8 kP
- Avg Tab Hardness [5, 11]: 8.2 kP
- Avg Hardness ([5]; Table 3C, low drug loading (35.2 wt % azithromycin), DCP anhydrous, oval tablets, target weight 750 mg): 9.0 kP
- Avg Hardness [5, 12]: 6.2 kP
- Avg Tablet Hardness [5, 13]: 5.8 kP
- Avg Tablet Hardness [5, 14]: 6.8 kP
- Avg Tablet Hardness [5, 15]: 6.2 kP
- Avg Tablet Hardness ([5]; Table 4D, high drug loading, diluent DCP, dihyd., modified capsule shape): 5.2 kP
- Dry Blend Carr's Index [6, 16]: 44%
- Dry Blend density As Is [6, 16]: 0.59 g/cc
- Dry Blend density Tapped [6, 16]: 1.05 g/cc
- Granulation Carr's Index [6, 17]: 26%
- Granulation Density As Is [6, 17]: 0.88 g/cc
- Granulation Density Tapped [6, 17]: 1.19 g/cc
- Dry Blend Carr's Index [6, 18]: 43%
- Dry Blend density As Is [6, 18]: 0.59 g/cc
- Dry Blend density Tapped [6, 18]: 1.04 g/cc
- Granulation Carr's Index [6, 19]: 32%
- Granulation Density As Is [6, 19]: 0.78 g/cc
- Granulation Density Tapped [6, 19]: 1.14 g/cc
- Granulation Carr's Index [6, 20]: 26%
- Granulation Density As Is [6, 20]: 0.89 g/cc
- Granulation Density Tapped [6, 20]: 1.19 g/cc
- Granulation Carr's Index [6, 21]: 30%
- Granulation Density As Is [6, 21]: 0.67 g/cc
- Granulation Density Tapped [6, 21]: 0.96 g/cc
- Dry Granulation Carr's Index [6, 22]: 26%
- Dry Granulation Density As Is [6, 22]: 0.89 g/cc
- Dry Granulation Density Tapped [6, 22]: 1.19 g/cc
- Dry Granulation Carr's Index [6, 23]: 18%
- Dry Granulation Density As Is [6, 23]: 0.84 g/cc
- Dry Granulation Density Tapped [6, 23]: 1.04 g/cc
- Dry Granulation Carr's Index [6, 24]: 30%
- Dry Granulation Density As Is [6, 24]: 0.67 g/cc
- Dry Granulation Density Tapped [6, 24]: 0.96 g/cc
- Dry Granulation Carr's Index [6, 25]: 25%
- Dry Granulation Density As Is [6, 25]: 0.69 g/cc
- Dry Granulation Density Tapped [6, 25]: 0.92 g/cc
- Dry Blend Carr's Index [6, 26]: 47%
- Dry Blend density As Is [6, 26]: 0.49 g/cc
- Dry Blend density Tapped [6, 26]: 0.92 g/cc
- Dry Blend Carr's Index [6, 27]: 44%
- Dry Blend density As Is [6, 27]: 0.57 g/cc
- Dry Blend density Tapped [6, 27]: 1.01 g/cc
- Dry Granulation Density Tapped ([6]; Table 7A, 55.76 wt % azithromycin, lactose anhydrous, corn starch, roller compaction 850 psi): 0.86 g/cc
- Dry Granulation Carr's Index [6, 28]: 24%
- Dry Granulation Density As Is [6, 28]: 0.66 g/cc
- Dry Granulation Carr's Index [6, 29]: 39%
- Dry Granulation Density As Is [6, 29]: 0.55 g/cc
- Dry Granulation Density Tapped [6, 29]: 0.91 g/cc
- Dry Granulation Carr's Index [6, 30]: 33%
- Dry Granulation Density As Is [6, 30]: 0.60 g/cc
- Dry Granulation Density Tapped [6, 30]: 0.90 g/cc
- Dry Granulation Carr's Index [6, 31]: 30%
- Dry Granulation Density As Is [6, 31]: 0.64 g/cc
- Dry Granulation Density Tapped [6, 31]: 0.92 g/cc
- Dry Granulation Carr's Index [6, 32]: 26%
- Dry Granulation Density As Is [6, 32]: 0.66 g/cc
- Dry Granulation Density Tapped [6, 32]: 0.92 g/cc
- Friability ([7]; Table 2A, 35.2 wt % azithromycin, DCP anhydrous, Long blend, Oval tooling): 2 of 5
- Friability ([7]; Table 2A, 35.2 wt % azithromycin, DCP anhydrous, Long blend, ½″ SRC tooling): 1.30%
- Friability [7, 8]: capped
- Friability [7, 11]: capped
- Friability [7, 12]: 0.50%
- Friability [7, 9]: Broken
- Friability [7, 13]: 1.30%
- Friability [7, 14]: Broken
- Friability [7, 10]: 0.94%
- Friability [7, 15]: 0.50%
Compound: CC[C@H]1OC(=O)[C@H](C)[C@@H](O[C@H]2C[C@@](C)(OC)[C@@H](O)[C@H](C)O2)[C@H](C)[C@@H](O[C@@H]2O[C@H](C)C[C@H](N(C)C)[C@H]2O)[C@](C)(O)C[C@@H](C)CN(C)[C@H](C)[C@@H](O)[C@]1(C)O [Form A, azithromycin dihydrate, reference compound]
- Friability ([7]; Table 3C, low drug loading (35.2 wt % azithromycin), DCP anhydrous, oval tablets, target weight 750 mg, dihydrate): broke during friability testing; also recorded: Broken
